Patent publication US20230094076A1, “COMBINATION THERAPY” (GlaxoSmithKline Intellectual Property Development Limited, priority 2016, published 2023)
Read-outs that look alike come from different tables or passages of the source.

Key:
PRMT6 = PRMT6 (Homo sapiens, UniProt Q96LA8); assay: PRMT family radioactive assay; assay type: biochemical
ccRCC cell lines = conditions: only at highest concentration
[1] = test system: arginine methylation (ADMA, MMA, SDMA) in Toledo cells; assay: Western analysis of arginine methylation, time course; assay type: cell-based, human; conditions: 0.4 μM
Experimental: (B) Representative western blots of arginine methylation marks. Regions quantified are denoted by black bars on the right of the gel.
As predicted, ADMA methylation decreased while MMA increased upon compound exposure (FIG. 12). […] Given the detection of numerous substrates with varying kinetics, and variability of ADMA levels among DMSO-treated samples, both the full lane and a prominent 45 kDa band were characterized to assess ADMA. Increases in MMA were apparent by 24 hours and near maximal by 48 hours while decreases in the 45 kDa ADMA band required 72-96 hours to achieve maximal effect. Increases in SDMA were apparent after 48 hours of compound exposure and continued to increase through 120 hours, consistent with the potential switch from conversion of MMA to ADMA by Type I PRMTs to SDMA by Type II PRMTs (FIG. 12).

PRMT4 = PRMT4 (Homo sapiens, UniProt Q86X55); assay: PRMT family radioactive assay; assay type: biochemical
PRMT4, sequence (Q86X55 whole entry): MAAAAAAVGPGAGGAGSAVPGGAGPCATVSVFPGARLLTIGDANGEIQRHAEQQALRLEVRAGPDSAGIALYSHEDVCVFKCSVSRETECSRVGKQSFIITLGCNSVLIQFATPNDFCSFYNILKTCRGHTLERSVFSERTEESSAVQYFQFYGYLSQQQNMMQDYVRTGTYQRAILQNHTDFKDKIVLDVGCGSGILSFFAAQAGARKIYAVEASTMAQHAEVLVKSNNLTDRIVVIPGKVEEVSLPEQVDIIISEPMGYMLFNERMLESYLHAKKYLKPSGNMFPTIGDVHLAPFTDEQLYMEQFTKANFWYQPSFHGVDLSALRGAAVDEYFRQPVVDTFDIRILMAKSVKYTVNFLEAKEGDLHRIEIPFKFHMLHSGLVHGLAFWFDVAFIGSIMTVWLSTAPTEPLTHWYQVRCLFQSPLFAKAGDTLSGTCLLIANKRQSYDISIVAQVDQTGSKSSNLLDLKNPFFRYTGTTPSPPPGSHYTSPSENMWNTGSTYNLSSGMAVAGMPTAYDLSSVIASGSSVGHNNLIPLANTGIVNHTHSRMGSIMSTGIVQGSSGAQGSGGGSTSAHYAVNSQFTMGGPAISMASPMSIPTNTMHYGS

PRMT9 = PRMT9 (Homo sapiens, UniProt Q6P2P2); assay: PRMT family radioactive assay; assay type: biochemical; conditions: 60 minute SAM:Enzyme:Compound A preincubation
PRMT9, sequence (Q6P2P2 whole entry): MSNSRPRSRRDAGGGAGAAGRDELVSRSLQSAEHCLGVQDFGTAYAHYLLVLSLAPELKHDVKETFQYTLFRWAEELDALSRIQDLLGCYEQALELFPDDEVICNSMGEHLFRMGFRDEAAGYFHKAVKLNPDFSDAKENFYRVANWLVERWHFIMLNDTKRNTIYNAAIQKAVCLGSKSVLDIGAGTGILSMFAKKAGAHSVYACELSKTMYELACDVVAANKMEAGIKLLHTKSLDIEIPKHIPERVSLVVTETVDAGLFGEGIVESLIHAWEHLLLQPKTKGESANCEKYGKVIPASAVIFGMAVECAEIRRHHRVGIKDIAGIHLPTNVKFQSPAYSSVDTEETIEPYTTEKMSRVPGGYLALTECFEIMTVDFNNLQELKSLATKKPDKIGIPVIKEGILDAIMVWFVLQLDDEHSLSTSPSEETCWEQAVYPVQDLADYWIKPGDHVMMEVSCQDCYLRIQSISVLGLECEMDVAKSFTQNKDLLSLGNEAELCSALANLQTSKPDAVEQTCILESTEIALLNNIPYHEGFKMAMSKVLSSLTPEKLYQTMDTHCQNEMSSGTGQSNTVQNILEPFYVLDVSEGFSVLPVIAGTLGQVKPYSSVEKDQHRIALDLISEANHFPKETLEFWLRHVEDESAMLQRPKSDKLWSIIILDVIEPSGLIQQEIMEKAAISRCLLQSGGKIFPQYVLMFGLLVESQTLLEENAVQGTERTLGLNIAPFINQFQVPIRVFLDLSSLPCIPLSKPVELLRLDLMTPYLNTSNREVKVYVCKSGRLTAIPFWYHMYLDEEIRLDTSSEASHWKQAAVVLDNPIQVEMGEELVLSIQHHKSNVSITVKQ

[2] = test system: Toledo (human DLBCL) xenograft; conditions: for Body weight Difference (vs. vehicle): Toledo (DLBCL), Day 25
PRMT3 = PRMT3 (Homo sapiens, UniProt O60678); assay: PRMT family radioactive assay; assay type: biochemical
PRMT3, sequence (O60678 whole entry): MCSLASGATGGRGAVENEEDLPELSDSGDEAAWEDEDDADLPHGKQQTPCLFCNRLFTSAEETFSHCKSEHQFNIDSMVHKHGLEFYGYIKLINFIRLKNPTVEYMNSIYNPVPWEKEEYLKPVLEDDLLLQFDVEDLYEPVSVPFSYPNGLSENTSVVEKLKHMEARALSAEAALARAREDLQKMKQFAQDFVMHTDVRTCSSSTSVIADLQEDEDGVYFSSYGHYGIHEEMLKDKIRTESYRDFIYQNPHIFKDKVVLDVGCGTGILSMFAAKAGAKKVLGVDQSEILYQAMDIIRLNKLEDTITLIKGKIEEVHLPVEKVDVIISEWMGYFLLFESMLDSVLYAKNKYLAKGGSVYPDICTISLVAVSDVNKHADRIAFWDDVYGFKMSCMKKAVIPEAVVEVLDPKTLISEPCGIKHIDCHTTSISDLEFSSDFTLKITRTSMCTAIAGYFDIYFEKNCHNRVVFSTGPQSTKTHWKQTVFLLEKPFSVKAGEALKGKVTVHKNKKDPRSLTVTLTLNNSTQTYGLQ

[3] = test system: Toledo (human DLBCL) xenograft; conditions: for Body weight Difference (vs. vehicle) / Regression: Toledo (DLBCL), Day 28
PRMT5/MEP50 = PRMT5/MEP50 (Homo sapiens, UniProt O14744); assay: PRMT family radioactive assay; assay type: biochemical; conditions: 60 minute SAM:Enzyme:Compound A preincubation
PRMT5/MEP50, sequence (O14744 whole entry): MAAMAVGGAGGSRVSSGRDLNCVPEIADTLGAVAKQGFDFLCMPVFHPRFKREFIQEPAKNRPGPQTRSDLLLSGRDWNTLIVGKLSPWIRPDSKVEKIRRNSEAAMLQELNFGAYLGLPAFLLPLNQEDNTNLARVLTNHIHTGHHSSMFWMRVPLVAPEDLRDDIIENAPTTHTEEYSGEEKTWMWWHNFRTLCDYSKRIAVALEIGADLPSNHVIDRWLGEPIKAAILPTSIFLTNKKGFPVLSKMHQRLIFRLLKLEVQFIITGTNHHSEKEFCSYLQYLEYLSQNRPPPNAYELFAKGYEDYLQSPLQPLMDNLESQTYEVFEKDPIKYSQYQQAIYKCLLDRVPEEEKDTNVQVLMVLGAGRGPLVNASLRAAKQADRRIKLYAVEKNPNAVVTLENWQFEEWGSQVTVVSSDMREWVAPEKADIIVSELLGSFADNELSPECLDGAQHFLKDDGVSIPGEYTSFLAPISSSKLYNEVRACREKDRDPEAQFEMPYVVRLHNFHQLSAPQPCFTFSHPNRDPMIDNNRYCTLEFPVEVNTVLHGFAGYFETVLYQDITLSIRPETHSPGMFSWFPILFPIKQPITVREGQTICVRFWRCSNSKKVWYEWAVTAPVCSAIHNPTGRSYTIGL
PRMT5/MEP50, sequence (Q9BQA1 whole entry partner): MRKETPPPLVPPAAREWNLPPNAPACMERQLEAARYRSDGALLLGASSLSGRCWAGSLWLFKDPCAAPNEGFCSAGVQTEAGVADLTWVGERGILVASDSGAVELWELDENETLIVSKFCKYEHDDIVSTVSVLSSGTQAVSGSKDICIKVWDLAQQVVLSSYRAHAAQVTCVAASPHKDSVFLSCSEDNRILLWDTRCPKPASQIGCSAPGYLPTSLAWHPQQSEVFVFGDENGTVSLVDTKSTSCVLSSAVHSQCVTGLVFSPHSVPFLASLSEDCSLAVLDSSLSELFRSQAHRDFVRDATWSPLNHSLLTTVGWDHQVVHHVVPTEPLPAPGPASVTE

AML cell lines = conditions: 10 cell lines
Experimental: (§1) The growth of all cell lines was evaluated over time across a wide range of seeding densities to identify conditions that permitted proliferation throughout the entire 6-day assay. Cells were plated at the optimal seeding density and after overnight incubation, a 20-point 2-fold titration of compound was added and plates were incubated for 6 days. A replicate plate of cells was harvested at the time of compound addition to quantify the starting number of cells (T0). Values obtained after the 6 day treatment were expressed as a function of the T0 value and plotted against compound concentration. The T0 value was normalized to 100% and represents the number of cells at the time of compound addition. The data were fit with a 4 parameter equation to generate a concentration response curve and the growth IC50 (gIC50) was determined. The gIC50 is the midpoint of the ‘growth window’, the difference between the number of cells at the time of compound addition (To) and the number of cells after 6 days (DMSO control). The growth-death assay can be used to quantify the net population change, clearly defining cell death (cytotoxicity) as fewer cells compared to the number at the time of compound addition (T0).

Breast cancer cell lines = conditions: percent of cell lines, 29 cell lines
Experimental: as §1

ACHN = conditions: ccRCC, 6-day
Experimental: as §1

SK-MEL-5 = conditions: SK-MEL-5, melanoma, 6-day
Experimental: as §1

CAKI-2 = conditions: CAKI-2, ccRCC, 6-day
Experimental: as §1

786-O = conditions: ccRCC, 6-day
Experimental: as §1

Kidney cancer cell lines = conditions: percent of cell lines, 10 cell lines
Experimental: as §1

G-402 = conditions: G-402, Leiomyoblastoma, 6-day
Experimental: as §1

[4] = test system: Prostate cancer cell lines; conditions: 4 cell lines
Experimental: as §1

OCI- = conditions: AML subtype M4, 6-day
Experimental: as §1

MV-4-11 = conditions: MV-4-11, AML subtype M5, 6-day
Experimental: as §1

[5] = test system: human renal cell carcinoma xenografts (ACHN); conditions: for Body weight Difference (vs. vehicle) / Regression: ACHN (ccRCC)
U2932 = test system: U2932
Source text: (§2) FIG. 18: Propidium iodide FACS analysis of cell cycle in human lymphoma cell lines. […] Data represents the average±SEM of biological replicates, n=2.

Toledo = test system: Toledo
Source text: as §2

OCI-Ly1 = test system: OCI-Ly1
Source text: as §2

[6] = 60 minute SAM:Enzyme:Compound A preincubation
[7] = 600 QD mg/kg oral, arm terminated at day 31

PRMT6, sequence (Q96LA8 whole entry): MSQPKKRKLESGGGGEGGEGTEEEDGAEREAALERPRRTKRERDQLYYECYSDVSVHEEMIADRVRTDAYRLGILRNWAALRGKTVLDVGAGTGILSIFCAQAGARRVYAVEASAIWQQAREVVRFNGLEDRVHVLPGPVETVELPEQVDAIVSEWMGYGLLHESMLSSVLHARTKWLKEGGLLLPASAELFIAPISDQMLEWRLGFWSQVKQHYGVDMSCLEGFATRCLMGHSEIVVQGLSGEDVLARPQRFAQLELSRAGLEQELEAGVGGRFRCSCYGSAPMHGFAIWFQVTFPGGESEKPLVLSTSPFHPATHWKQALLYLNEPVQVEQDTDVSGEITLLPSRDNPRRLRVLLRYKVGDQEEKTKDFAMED

CCOCC1(COCC)CCC(c2n[nH]cc2CN(C)CCNC)CC1 [Compound A] was tested, and the inhibition of activity (PRMT6; [6]) was “inhibited the activity”, the “time dependence of inhibition” value (PRMT6; increasing preincubation times) was “time dependent inhibitor” and the “concentration at which caspase cleavage occurred” value (ccRCC cell lines) was 30 µM. The “time to maximal decrease of 45 kDa ADMA band” value [1] was 72 to 96 h, the “time to near maximal increase in MMA” value [1] was no more than 48 h and the “change in ADMA methylation” value ([1]; up to 120 hours) was “decreased”. For the same compound, the “change in MMA” value ([1]; up to 120 hours) was “increased”, the “change in SDMA” value ([1]; up to 120 hours) was “increase” and the inhibition of activity (PRMT4; [6]) was “inhibited the activity”. The “time dependence of inhibition” value (PRMT4; increasing preincubation times) was “time dependent inhibitor”, the inhibition of activity (PRMT9) was “failed to inhibit” and the “Body weight Difference (vs. vehicle)” value ([2]; 37.5 QD mg/kg oral) was −5%. For the same compound, the “Body weight Difference (vs. vehicle)” value ([2]; 75 BID mg/kg oral) was −4%, the “Body weight Difference (vs. vehicle)” value ([2]; 75 QD mg/kg oral) was −5% and the “Body weight Difference (vs. vehicle)” value ([2]; 150 QD mg/kg oral) was −7%. The body weight loss ([2]; any dose group, 37.5-150 mg/kg QD or 75 mg/kg BID) was “No significant body weight loss”, the inhibition of activity (PRMT3; [6]) was “inhibited the activity” and the “time dependence of inhibition” value (PRMT3; increasing preincubation times) was “no time dependent behavior”. For the same compound, the “Body weight Difference (vs. vehicle)” value ([3]; 150 QD mg/kg oral) was −4%, the “Body weight Difference (vs. vehicle)” value ([3]; 300 QD mg/kg oral) was −3% and the Regression ([3]; 300 QD mg/kg oral) was 37%. For the same compound, the “Body weight Difference (vs. vehicle)” value ([3]; 450 QD mg/kg oral) was −8%, the Regression ([3]; 450 QD mg/kg oral) was 58% and the “Body weight Difference (vs. vehicle)” value ([3]; 600 QD mg/kg oral) was −7%. For the same compound, the Regression ([3]; 600 QD mg/kg oral) was 62%, the “doses at which regressions were observed” value ([3]; Toledo xenograft, oral daily, 28 days) was no less than 300 mg/kg and the body weight loss ([3]; any dose group, 150-600 mg/kg daily) was “no significant body weight loss”. The inhibition of activity (PRMT5/MEP50) was “failed to inhibit”, the “number of cell lines with induced cytotoxicity” value (AML cell lines; 6-day proliferation assay) was 5 and the “% Cytotoxic” value (AML cell lines; percent of cell lines) was 50%. The “% gIC100 < 2” value (AML cell lines; percent of cell lines) was 0%, the “% Cytotoxic” value (Breast cancer cell lines) was 10% and the “% gIC100 < 2” value (Breast cancer cell lines) was 0%. For the same compound, the “Ymin − T0” value (ACHN) was 96.5, the “Ymin − T0” value (SK-MEL-5) was 31.8 and the gIC100 (SK-MEL-5) was 27.09 ± 3.92 µM. The “Ymin − T0” value (CAKI-2) was 169.6, the “Ymin − T0” value (786-O) was 643.7 and the “% Cytotoxic” value (Kidney cancer cell lines) was 0%. For the same compound, the “% gIC100 < 2” value (Kidney cancer cell lines) was 0%, the “Ymin − T0” value (G-402) was 92.6 and the “Median gIC100” value ([4]; 6-day proliferation) was 29.34 µM. The “% Cytotoxic” value ([4]; percent of cell lines) was 0%, the “% gIC100 < 2” value ([4]; percent of cell lines) was 0% and the gIC100 (OCI-) was 29.33 ± 0.00 µM. The “Ymin − T0” value (OCI-; negative = cell death) was 523.2, the gIC100 (MV-4-11) was 14.55 ± 4.27 µM and the “Ymin − T0” value (MV-4-11; negative = cell death) was 565.6. For the same compound, the body weight loss ([5]; 600 mg/kg daily) was “Significant body weight loss”, the “Body weight Difference (vs. vehicle)” value ([5]; 150 QD mg/kg oral, Day 59) was −3% and the “Body weight Difference (vs. vehicle)” value ([5]; 300 QD mg/kg oral, Day 59) was −4%. For the same compound, the Regression ([5]; 300 QD mg/kg oral, Day 59) was 2%, the “Body weight Difference (vs. vehicle)” value ([5]; 450 QD mg/kg oral, Day 59) was −7% and the Regression ([5]; 450 QD mg/kg oral, Day 59) was 15%. The “Body weight Difference (vs. vehicle)” value [5, 7] was −17%, the Regression [5, 7] was 6% and the “doses at which regressions were observed” value ([5]; ACHN xenograft, oral daily) was no less than 300 mg/kg. The “concentration giving accumulation of cells in sub-G1” value (“concentration giving accumulation” below) (U2932) was 10 µM, the “concentration giving accumulation” value (Toledo; after 3 days) was no less than 1000 nM and the “concentration giving increase in sub-G1 population” value (Toledo; by day 7) was no less than 100 nM. The “concentration giving accumulation” value (OCI-Ly1) was 10 µM.
